The values below come from publication PMC5818740, “Lock and chop: A novel method for the generation of a PICK1 PDZ domain and piperidine‐based inhibitor co‐crystal structure” (Protein Science : A Publication of the Protein Society, 2018).

The target of this experiment is PICK1 (protein interacting with kinase C1), PDZ domain (Homo sapiens, UniProt Q9NRD5). Nature of the experiment: biochemical.
PICK1 (protein interacting with kinase C1), PDZ domain, sequence (Q9NRD5 1-357 limits assumed): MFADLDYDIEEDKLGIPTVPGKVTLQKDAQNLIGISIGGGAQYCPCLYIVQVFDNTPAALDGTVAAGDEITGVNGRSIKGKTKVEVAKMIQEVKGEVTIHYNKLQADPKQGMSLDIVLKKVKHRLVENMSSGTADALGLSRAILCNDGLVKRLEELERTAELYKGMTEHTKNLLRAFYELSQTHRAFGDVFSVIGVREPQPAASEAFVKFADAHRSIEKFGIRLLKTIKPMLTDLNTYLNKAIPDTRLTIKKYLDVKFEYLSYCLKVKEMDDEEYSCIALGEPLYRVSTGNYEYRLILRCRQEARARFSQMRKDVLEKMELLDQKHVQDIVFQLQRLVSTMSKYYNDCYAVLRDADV

Turning to `CC(C)(C)OC(=O)N1CCC[C@H]1C(=O)N1CCC(C(=O)N[C@H](C(=O)O)C2CCCC2)(c2ccc(Br)cc2)CC1` [BIO124], the IC50 amounted to 513 nM.
